Assays:
SNB-75 = test: NCI-60 anticancer screening (SRB); format: cell-based; settings: Homo sapiens; SNB-75, CNS cancer; one dose 10 μM; read-out: Growth Inhibition Percentage (GI %)
OVCAR-3 = test: NCI-60 anticancer screening (SRB); format: cell-based; settings: Homo sapiens; OVCAR-3, ovarian cancer; one dose 10 μM; read-out: Growth Inhibition Percentage (GI %)
HS 578T = test: NCI-60 anticancer screening (SRB); format: cell-based; settings: Homo sapiens; HS 578T, breast cancer; one dose 10 μM; read-out: Growth Inhibition Percentage (GI %)
TK-10 = test: NCI-60 anticancer screening (SRB); format: cell-based; settings: Homo sapiens; TK-10, renal cancer; one dose 10 μM; read-out: Growth Inhibition Percentage (GI %)
MALME-3M = test: NCI-60 anticancer screening (SRB); format: cell-based; settings: Homo sapiens, melanoma, one dose 10 μM, read-out: Growth Inhibition Percentage (GI %)
NCI/ADR-RES = test: NCI-60 anticancer screening (SRB); format: cell-based; settings: Homo sapiens, ovarian cancer, one dose 10 μM, read-out: Growth Inhibition Percentage (GI %)
CAKI-1 = test: NCI-60 anticancer screening (SRB); format: cell-based; settings: Homo sapiens; CAKI-1, renal cancer; one dose 10 μM; read-out: Growth Inhibition Percentage (GI %)
EKVX = test: NCI-60 anticancer screening (SRB); format: cell-based; settings: Homo sapiens, NSC lung cancer, one dose 10 μM, read-out: Growth Inhibition Percentage (GI %)
A498 = test: NCI-60 anticancer screening (SRB); format: cell-based; settings: Homo sapiens; A498, renal cancer; one dose 10 μM; read-out: Growth Inhibition Percentage (GI %)
COLO 205 = test: NCI-60 anticancer screening (SRB); format: cell-based; settings: Homo sapiens; COLO 205, colon cancer; one dose 10 μM; read-out: Growth Inhibition Percentage (GI %)
CCRF-CEM = test: NCI-60 anticancer screening (SRB); format: cell-based; settings: Homo sapiens, leukemia, one dose 10 μM, read-out: Growth Inhibition Percentage (GI %)
NCI-H226 = test: NCI-60 anticancer screening (SRB); format: cell-based; settings: Homo sapiens; NCI-H226, NSC lung cancer; one dose 10 μM; read-out: Growth Inhibition Percentage (GI %)
SK-MEL-2 = test: NCI-60 anticancer screening (SRB); format: cell-based; settings: Homo sapiens; SK-MEL-2, melanoma; one dose 10 μM; read-out: Growth Inhibition Percentage (GI %)
HL-60(TB) = test: NCI-60 anticancer screening (SRB); format: cell-based; settings: Homo sapiens, leukemia, one dose 10 μM, read-out: Growth Inhibition Percentage (GI %)
OVCAR-4 = test: NCI-60 anticancer screening (SRB); format: cell-based; settings: Homo sapiens; OVCAR-4, ovarian cancer; one dose 10 μM; read-out: Growth Inhibition Percentage (GI %)
LOX IMVI = test: NCI-60 anticancer screening (SRB); format: cell-based; settings: Homo sapiens, melanoma, one dose 10 μM, read-out: Growth Inhibition Percentage (GI %)
OVCAR-8 = test: NCI-60 anticancer screening (SRB); format: cell-based; settings: Homo sapiens; OVCAR-8, ovarian cancer; one dose 10 μM; read-out: Growth Inhibition Percentage (GI %)
SF-268 = test: NCI-60 anticancer screening (SRB); format: cell-based; settings: Homo sapiens; SF-268, CNS cancer; one dose 10 μM; read-out: Growth Inhibition Percentage (GI %)
MOLT-4 = test: NCI-60 anticancer screening (SRB); format: cell-based; settings: Homo sapiens; MOLT-4, leukemia; one dose 10 μM; read-out: Growth Inhibition Percentage (GI %)
BT-549 = test: NCI-60 anticancer screening (SRB); format: cell-based; settings: Homo sapiens; BT-549, breast cancer; one dose 10 μM; read-out: Growth Inhibition Percentage (GI %)
786-0 = test: NCI-60 anticancer screening (SRB); format: cell-based; settings: Homo sapiens; 786-0, renal cancer; one dose 10 μM; read-out: Growth Inhibition Percentage (GI %)
M14 = test: NCI-60 anticancer screening (SRB); format: cell-based; settings: Homo sapiens; M14, melanoma; one dose 10 μM; read-out: Growth Inhibition Percentage (GI %)
SF-295 = test: NCI-60 anticancer screening (SRB); format: cell-based; settings: Homo sapiens; SF-295, CNS cancer; one dose 10 μM; read-out: Growth Inhibition Percentage (GI %)
MCF7 = test: NCI-60 anticancer screening (SRB); format: cell-based; settings: Homo sapiens; MCF7, breast cancer; one dose 10 μM; read-out: Growth Inhibition Percentage (GI %)
K-562 = test: NCI-60 anticancer screening (SRB); format: cell-based; settings: Homo sapiens, K562; K-562, leukemia; one dose 10 μM; read-out: Growth Inhibition Percentage (GI %)
DU-145 = test: NCI-60 anticancer screening (SRB); format: cell-based; settings: Homo sapiens; DU-145, prostate cancer; one dose 10 μM; read-out: Growth Inhibition Percentage (GI %)
UO-31 = test: NCI-60 anticancer screening (SRB); format: cell-based; settings: Homo sapiens; UO-31, renal cancer; one dose 10 μM; read-out: Growth Inhibition Percentage (GI %)
NCI-H522 = test: NCI-60 anticancer screening (SRB); format: cell-based; settings: Homo sapiens; NCI-H522, NSC lung cancer; one dose 10 μM; read-out: Growth Inhibition Percentage (GI %)
HOP-92 = test: NCI-60 anticancer screening (SRB); format: cell-based; settings: Homo sapiens; HOP-92, NSC lung cancer; one dose 10 μM; read-out: Growth Inhibition Percentage (GI %)
UACC-62 = test: NCI-60 anticancer screening (SRB); format: cell-based; settings: Homo sapiens; UACC-62, melanoma; one dose 10 μM; read-out: Growth Inhibition Percentage (GI %)
U251 = test: NCI-60 anticancer screening (SRB); format: cell-based; settings: Homo sapiens, U-251; U251, CNS cancer; one dose 10 μM; read-out: Growth Inhibition Percentage (GI %)
MDA-MB-468 = test: NCI-60 anticancer screening (SRB); format: cell-based; settings: Homo sapiens; MDA-MB-468, breast cancer; one dose 10 μM; read-out: Growth Inhibition Percentage (GI %)
SK-MEL-28 = test: NCI-60 anticancer screening (SRB); format: cell-based; settings: Homo sapiens; SK-MEL-28, melanoma; one dose 10 μM; read-out: Growth Inhibition Percentage (GI %)

Row | SMILES | inhibition at 10 µM (SNB-75) | inhibition at 10 µM (OVCAR-3) | inhibition at 10 µM (HS 578T) | inhibition at 10 µM (TK-10) | inhibition at 10 µM (MALME-3M) | inhibition at 10 µM (NCI/ADR-RES) | melting point | inhibition at 10 µM (CAKI-1) | inhibition at 10 µM (EKVX) | inhibition at 10 µM (A498) | inhibition at 10 µM (COLO 205) | inhibition at 10 µM (CCRF-CEM) | inhibition at 10 µM (NCI-H226) | inhibition at 10 µM (SK-MEL-2) | inhibition at 10 µM (HL-60(TB)) | inhibition at 10 µM (OVCAR-4) | inhibition at 10 µM (LOX IMVI) | inhibition at 10 µM (OVCAR-8) | inhibition at 10 µM (SF-268) | inhibition at 10 µM (MOLT-4) | also measured
1 | CCOC(=O)C1=C(N)N(c2ccc(Cl)cc2)C2=C(C(=O)CC(C)(C)C2)C1c1ccccc1Br (racemic) [6f, (±)-Ethyl 2-amino-4–(2-bromophenyl)-1–(4-chlorophenyl)-7,7-dimethyl-5-oxo-1,4,5,6,7,8-hexahydroquinoline-3-carboxylate] | 16% | 31% | < 10% | 22% | 18% | 14% | 210 to 212 °C | 32% | 25% | < 10% | 45% | 33% | 14% | < 10% | 68% | 25% | < 10% | 14% | 17% | < 10% | inhibition at 10 µM (BT-549): 27%; inhibition at 10 µM (786-0): 12%; inhibition at 10 µM (M14): 24%; inhibition at 10 µM (SF-295): 18%; inhibition at 10 µM (MCF7): 47%; inhibition at 10 µM (K-562): < 10%; inhibition at 10 µM (DU-145): < 10%; inhibition at 10 µM (UO-31): 40%; inhibition at 10 µM (NCI-H522): 43%; inhibition at 10 µM (HOP-92): 13%; inhibition at 10 µM (UACC-62): 36%; inhibition at 10 µM (U251): 40%; inhibition at 10 µM (MDA-MB-468): 53%; inhibition at 10 µM (SK-MEL-28): < 10%
2 | CCOC(=O)C1=C(N)N(c2ccccc2)C2=C(C(=O)CC(C)(C)C2)C1c1ccccc1OC (racemic) [6g, (±)-Ethyl 2-amino-4–(2-methoxyphenyl)-7,7-dimethyl-5-oxo-1-phenyl-1,4,5,6,7,8-hexahydroquinoline-3-carboxylate] | < 10% | < 10% | < 10% | < 10% | < 10% | < 10% | 243 to 245 °C | < 10% | < 10% | < 10% | < 10% | < 10% | < 10% | < 10% | < 10% | < 10% | < 10% | < 10% | < 10% | < 10% | inhibition at 10 µM (BT-549): < 10%; inhibition at 10 µM (786-0): < 10%; inhibition at 10 µM (M14): < 10%; inhibition at 10 µM (SF-295): 11%; inhibition at 10 µM (MCF7): < 10%; inhibition at 10 µM (K-562): < 10%; inhibition at 10 µM (DU-145): < 10%; inhibition at 10 µM (UO-31): 26%; inhibition at 10 µM (NCI-H522): < 10%; inhibition at 10 µM (HOP-92): < 10%; inhibition at 10 µM (UACC-62): < 10%; inhibition at 10 µM (U251): < 10%; inhibition at 10 µM (MDA-MB-468): 11%; inhibition at 10 µM (SK-MEL-28): < 10%

Reference: PMC10408569, “Recruitment of hexahydroquinoline as anticancer scaffold targeting inhibition of wild and mutants EGFR (EGFR^WT, EGFR^T790M, and EGFR^L858R)” (Journal of Enzyme Inhibition and Medicinal Chemistry, 2023)
